Target: HDAC1 (Homo sapiens, UniProt Q13547)
Conditions: for T(½): Broad Substrate A; for mechanism of inhibition (on/off kinetics): progress curves monitored for 4 hours and reversibility by 100-fold dilution

HDAC1, sequence (Q13547 whole entry): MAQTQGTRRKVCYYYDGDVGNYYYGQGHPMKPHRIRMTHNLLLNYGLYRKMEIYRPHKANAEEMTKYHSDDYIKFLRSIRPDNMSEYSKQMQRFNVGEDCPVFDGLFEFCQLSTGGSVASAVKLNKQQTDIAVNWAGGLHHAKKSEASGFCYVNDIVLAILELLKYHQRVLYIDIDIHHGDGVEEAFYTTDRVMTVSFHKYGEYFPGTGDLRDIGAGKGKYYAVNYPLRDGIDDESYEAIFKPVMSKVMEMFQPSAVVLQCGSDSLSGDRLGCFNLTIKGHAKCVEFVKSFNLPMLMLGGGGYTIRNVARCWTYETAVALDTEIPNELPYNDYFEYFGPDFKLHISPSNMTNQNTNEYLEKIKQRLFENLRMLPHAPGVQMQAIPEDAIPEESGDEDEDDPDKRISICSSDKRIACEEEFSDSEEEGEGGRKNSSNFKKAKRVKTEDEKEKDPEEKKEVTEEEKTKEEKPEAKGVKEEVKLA

| Structure (SMILES) | T(½) [min] | mechanism of inhibition (on/off kinetics) |
| --- | --- | --- |
| CC(=O)Nc1ccc(C(=O)Nc2ccccc2N)cc1 [CI-994] | 74 | slow on/slow off inhibitor |
| O=C(CCCCCCC(=O)Nc1ccccc1)NO [SAHA] | <4 | fast on/fast off inhibitor |
